In PubChem BioAssay (NCI):
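Where inhibition never reached the appropriate level, the endpoint shown equals the highest concentration tested. Otherwise, values were interpolated linearly from a five-concentration, 48-hour dose response in 96-well plates. GI50 = concentration required for 50% inhibition of growth. At the TGI there is no net growth.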

What was measured:
Assay in all cases: NCI tumour cell line growth inhibition, 48 h
[1] = tested on: HOP-62 NSCLC
[2] = tested on: RXF 393 renal
[3] = tested on: KM12 colon
[4] = tested on: SR leukemia
[5] = tested on: HL-60(TB) leukemia
[6] = tested on: SNB-75 CNS
[7] = tested on: OVCAR-5 ovarian
[8] = tested on: HCT-116 colon
[9] = tested on: SF-268 CNS
[10] = tested on: SN12C renal

SMILES: COC(=O)C1(C)CCc2c(ccc3ccccc23)C1=O (configuration not stated)
- TGI [1]: > 100 µM
- TGI [2]: 67.5 µM
- TGI [3]: 70.4 µM
- TGI [4]: > 100 µM
- TGI [5]: > 100 µM
- TGI [6]: > 100 µM
- TGI [7]: > 100 µM
- TGI [8]: > 100 µM
- TGI [9]: > 100 µM
- TGI [10]: > 100 µM

SMILES: O=C(/C=C/c1cccnc1)/C=C/c1cccnc1
- GI50 [1]: 6.27 µM
- TGI [1]: 16.4 µM
- GI50 [2]: 0.608 µM
- TGI [2]: 1.53 µM
- GI50 [3]: 0.428 µM
- TGI [3]: 1.58 µM
- GI50 [4]: 0.196 µM
- TGI [4]: > 100 µM
- GI50 [5]: 0.707 µM
- GI50 [6]: 1.8 µM
- TGI [6]: 7.33 µM
- GI50 [7]: 2.17 µM
- TGI [7]: 5.03 µM
- GI50 [8]: 0.164 µM
- TGI [8]: 0.321 µM
- GI50 [9]: 2.73 µM
- TGI [9]: 7.77 µM
- GI50 [10]: 2.99 µM
- TGI [10]: 12.7 µM

SMILES: COc1ccc(Nc2nc3c(N)cc(C(F)(F)F)cc3nc2-c2ccccc2)cc1
- TGI [1]: > 100 µM
- TGI [2]: 68.2 µM
- TGI [3]: > 100 µM
- TGI [4]: > 100 µM
- TGI [5]: > 100 µM
- TGI [6]: 82.2 µM
- TGI [7]: > 100 µM
- TGI [8]: > 100 µM
- TGI [9]: > 100 µM
- TGI [10]: > 100 µM

SMILES: COc1ccc2c(c1)CC[C@@H]1C2CC[C@]2(C)C(=O)N(C)C(=O)CC12 (some centres not stated)
- TGI [1]: > 100 µM
- TGI [2]: > 100 µM
- TGI [3]: > 100 µM
- TGI [4]: > 100 µM
- TGI [5]: > 100 µM
- TGI [6]: > 100 µM
- TGI [7]: > 100 µM
- TGI [8]: > 100 µM
- TGI [9]: > 100 µM
- TGI [10]: > 100 µM

SMILES: COc1cc(-c2cn(-c3ccc(Cl)cc3)c(=O)n2-c2ccccc2)cc(OC)c1OC
- GI50 [1]: > 85.3 µM
- TGI [1]: > 100 µM
- GI50 [2]: 25.4 µM
- TGI [2]: > 81.9 µM
- GI50 [3]: > 69.9 µM
- TGI [3]: > 100 µM
- TGI [4]: > 100 µM
- GI50 [5]: 3.35 µM
- TGI [5]: > 38.5 µM
- GI50 [6]: 5.51 µM
- TGI [6]: 41.8 µM
- GI50 [7]: > 100 µM
- TGI [7]: > 100 µM
- GI50 [8]: 45.8 µM
- TGI [8]: > 100 µM
- GI50 [9]: > 68.9 µM
- TGI [9]: > 100 µM
- GI50 [10]: > 100 µM
- TGI [10]: > 100 µM

SMILES: CCN=C(N)CSS(=O)(=O)O
- TGI [1]: > 100 µM
- TGI [2]: > 100 µM
- TGI [3]: > 100 µM
- TGI [4]: > 100 µM
- TGI [5]: > 100 µM
- TGI [6]: > 100 µM
- TGI [7]: > 100 µM
- TGI [8]: > 100 µM
- TGI [9]: > 100 µM
- TGI [10]: > 100 µM

SMILES: O=C1/C(=C\c2ccccc2)CN(C(=O)c2ccccc2F)C/C1=C\c1ccccc1
- GI50 [1]: 2.53 µM
- TGI [1]: 6.57 µM
- GI50 [2]: 1.8 µM
- TGI [2]: 3.41 µM
- GI50 [3]: 1.37 µM
- TGI [3]: 3.11 µM
- GI50 [4]: 0.407 µM
- TGI [4]: 3.45 µM
- GI50 [5]: 2.78 µM
- TGI [5]: 7.36 µM
- GI50 [6]: 3.5 µM
- TGI [6]: 14.5 µM
- GI50 [7]: 2.16 µM
- TGI [7]: 5.38 µM
- GI50 [8]: 0.321 µM
- TGI [8]: 1.03 µM
- GI50 [9]: 2.8 µM
- TGI [9]: 8.85 µM
- GI50 [10]: 1.77 µM
- TGI [10]: 3.48 µM

SMILES: C/C(=N\NC(=S)Nc1ccccc1)c1ccccn1
- GI50 [1]: 0.0708 µM
- TGI [1]: 3.61 µM
- GI50 [2]: 0.588 µM
- TGI [2]: 2.64 µM
- GI50 [3]: 0.143 µM
- TGI [3]: 2.29 µM
- GI50 [4]: 0.0703 µM
- TGI [4]: 11.3 µM
- GI50 [5]: < 0.0114 µM
- TGI [5]: 0.0781 µM
- GI50 [6]: 1.86 µM
- TGI [6]: 11 µM
- GI50 [7]: 0.118 µM
- TGI [7]: 10.9 µM
- GI50 [8]: < 0.01 µM
- TGI [8]: 1.17 µM
- GI50 [9]: 0.205 µM
- TGI [9]: 5.17 µM
- GI50 [10]: 0.355 µM
- TGI [10]: 9.64 µM

SMILES: CC/C(=C(/CC)c1ccc(OP(=O)([O-])[O-])cc1)c1ccc(OP(=O)([O-])[O-])cc1.N.N.N.N.[Pt+4].[Pt+4]
- GI50 [1]: 1.75 µM
- TGI [1]: 13.6 µM
- GI50 [2]: 2.4 µM
- TGI [2]: 6.76 µM
- GI50 [3]: 22 µM
- TGI [3]: > 100 µM
- GI50 [4]: 1.28 µM
- TGI [4]: > 100 µM
- GI50 [5]: 0.518 µM
- TGI [5]: 16.4 µM
- GI50 [6]: 1.24 µM
- TGI [6]: 7.4 µM
- GI50 [7]: 6.98 µM
- TGI [7]: 77.8 µM
- GI50 [8]: 5.66 µM
- TGI [8]: > 100 µM
- GI50 [9]: 1.73 µM
- TGI [9]: 16.6 µM
- GI50 [10]: 3.93 µM
- TGI [10]: 45.7 µM

SMILES: CCOC(=O)/C(=C/c1c(-c2ccccc2)[nH]c2ccccc12)C(=O)c1ccc(Cl)cc1
- GI50 [1]: 4.59 µM
- TGI [1]: > 100 µM
- GI50 [2]: 17.4 µM
- TGI [2]: > 100 µM
- GI50 [3]: 3.29 µM
- TGI [3]: > 100 µM
- GI50 [4]: 3.14 µM
- TGI [4]: 6.42 µM
- GI50 [5]: 1.99 µM
- TGI [5]: 7.59 µM
- GI50 [6]: 4.87 µM
- TGI [6]: > 100 µM
- GI50 [7]: > 100 µM
- TGI [7]: > 100 µM
- GI50 [8]: 2.76 µM
- TGI [8]: > 100 µM
- GI50 [9]: 6.06 µM
- TGI [9]: > 100 µM
- GI50 [10]: 3.35 µM
- TGI [10]: > 100 µM

SMILES: CC1C2CC(CC2=O)C1(C)C (configuration not stated)
- TGI [1]: > 100 µM
- TGI [2]: > 100 µM
- TGI [3]: > 100 µM
- TGI [4]: > 100 µM
- TGI [5]: > 100 µM
- TGI [6]: > 100 µM
- TGI [7]: > 100 µM
- TGI [8]: > 100 µM
- TGI [9]: > 100 µM
- TGI [10]: > 100 µM

SMILES: COc1ccc(C2=NN(c3ccc(S(N)(=O)=O)cc3)C(c3ccc(Cl)cc3)C2)c(O)c1 (configuration not stated)
- GI50 [1]: 9.35 µM
- TGI [1]: 28.5 µM
- GI50 [2]: 2.53 µM
- TGI [2]: 9.78 µM
- GI50 [3]: 2.67 µM
- TGI [3]: 7.91 µM
- GI50 [4]: 0.897 µM
- TGI [4]: 3.61 µM
- GI50 [5]: 1.86 µM
- TGI [5]: 4.99 µM
- GI50 [6]: 5.87 µM
- TGI [6]: 45.1 µM
- GI50 [7]: 9.44 µM
- TGI [7]: 29.3 µM
- GI50 [8]: 2.32 µM
- TGI [8]: 8.63 µM
- GI50 [9]: 5.7 µM
- TGI [9]: 25.5 µM
- GI50 [10]: 5.09 µM
- TGI [10]: 18.3 µM

SMILES: CC(=O)C(CN1CCOCC1)C(c1ccccc1)c1c(O)c2ccccc2oc1=O (configuration not stated)
- TGI [1]: > 100 µM
- TGI [2]: > 100 µM
- TGI [3]: > 100 µM
- TGI [4]: > 100 µM
- TGI [5]: > 100 µM
- TGI [6]: > 100 µM
- TGI [7]: > 100 µM
- TGI [8]: > 100 µM
- TGI [9]: > 100 µM
- TGI [10]: > 100 µM

SMILES: COc1ccc(C(NCCNC(c2ccc(OC)c(OC)c2)c2cc3c(cc2O)OCO3)c2cc3c(cc2O)OCO3)cc1OC (configuration not stated)
- TGI [1]: 30.6 µM
- TGI [2]: 4.85 µM
- TGI [3]: 7.11 µM
- TGI [4]: 3.43 µM
- TGI [5]: 4.69 µM
- TGI [6]: 11.5 µM
- TGI [7]: 11.6 µM
- TGI [8]: 6.05 µM
- TGI [9]: 3.24 µM
- TGI [10]: 4.55 µM

SMILES: CCN1C(=O)N(CC)C2C1NN=c1s/c(=C\c3ccc([N+](=O)[O-])cc3)c(=O)n12 (configuration not stated)
- GI50 [1]: 0.731 µM
- TGI [1]: > 59.8 µM
- GI50 [2]: 0.451 µM
- GI50 [3]: 0.342 µM
- TGI [3]: > 100 µM
- GI50 [4]: 0.385 µM
- TGI [4]: > 66.4 µM
- GI50 [5]: 0.31 µM
- TGI [5]: 1.12 µM
- GI50 [6]: 0.181 µM
- TGI [6]: 0.783 µM
- GI50 [7]: 1.22 µM
- TGI [7]: > 91.1 µM
- GI50 [8]: 0.427 µM
- TGI [8]: > 100 µM
- GI50 [9]: 0.895 µM
- TGI [9]: > 67.7 µM
- GI50 [10]: 0.677 µM
- TGI [10]: > 64.4 µM
